Laboratory results: US10336762B2 (priority 2017, dated 2019)
Where two headings read alike, the source gives them in different places.

How the values were obtained:
TNFα = test: cells; type: cell-based, human; settings: Homo sapiens, Monocyte, LPS-stimulated human monocytes, read-out: EC50 TNF
Protocol: IRAK4 Monocyte TNFα Cell Based Assay Procedure:
The cell suspension was then plated at a density of 5,000 cells/well onto black 384 well Greiner clear bottom plates. Plates were pre-spotted with test compounds and serially diluted in DMSO where 200 nL/well were delivered using the Echo 550 acoustic liquid dispenser (Labcyte®) for a final DMSO concentration of 0.5%. Plated cells were treated with compound for 1 hour at 37° C. Cells were then stimulated with 50 pg/ml of LPS (Sigma) excluding outside columns of plate used for unstimulated cell control wells. Cells were incubated for an additional 4 hours at 37° C. Cells were then spun out of the media and 5 μl of sample were taken and analyzed for total TNFα content using the TR-FRET Human TNFα detection system (CisBio). This system utilizes two labeled antibodies (cryptate and XL665) that bind to two different epitopes of the TNFα molecule and produce FRET signal proportional to the concentration of TNFα in the sample. Detection antibodies are mixed 50:50 and 5 μL were dispensed into each well. Plates were covered with clear seals and incubated at room temp overnight. […] Percent of control was calculated as follows: % Control=100×(RatioSample−Ratio0% stimulation)/(Ratio100% Stimulation−Ratio0% Stimulation) where unstimulated cells (0% stimulation) were the negative control and stimulated cells (100% stimulation) were used as the positive control.

IRAK4 enzyme = IRAK4 enzyme (Homo sapiens (Human), UniProt Q9NWZ3); test: biochemical; type: biochemical; settings: IRAK4 enzyme, 500 μM ATP
Sequence of IRAK4 enzyme (Q9NWZ3 whole entry): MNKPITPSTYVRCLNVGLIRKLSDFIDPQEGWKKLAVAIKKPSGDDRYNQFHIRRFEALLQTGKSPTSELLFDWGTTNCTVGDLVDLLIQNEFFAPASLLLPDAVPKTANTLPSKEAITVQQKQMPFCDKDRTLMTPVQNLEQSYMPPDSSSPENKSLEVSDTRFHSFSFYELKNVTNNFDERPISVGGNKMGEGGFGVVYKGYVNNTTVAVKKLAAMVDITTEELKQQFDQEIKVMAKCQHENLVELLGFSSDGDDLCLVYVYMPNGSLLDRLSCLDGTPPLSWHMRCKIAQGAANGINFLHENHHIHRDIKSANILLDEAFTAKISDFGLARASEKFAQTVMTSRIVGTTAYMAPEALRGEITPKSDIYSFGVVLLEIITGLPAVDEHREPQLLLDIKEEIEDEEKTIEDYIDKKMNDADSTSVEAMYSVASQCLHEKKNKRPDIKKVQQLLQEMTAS

Compound | EC50 (TNFα; TNFα content) | IC50 (IRAK4 enzyme; TR-FRET (HTRF)) | IC50 (IRAK4 enzyme; TR-FRET) | EC50 (TNFα; TNFα by TR-FRET)
N#Cc1cnn2c(-c3cc(NC45CCC(O)(CC4)CC5)c(C(=O)NC45CCC(O)(CC4)CC5)cn3)ccc2c1 [Example 402, 6-(3-cyanopyrrolo[1,2-b]pyridazin-7-yl)-N-(4-hydroxybicyclo[2.2.2]octan-1-yl)-4-((4-hydroxy-bicyclo[2.2.2]octan-1-yl)amino)nicotinamide] | 0.077 µM | 0.002 µM | – | –
CC(C)Nc1cc(-c2ccc3cc(C#N)cnn23)ncc1C(=O)NCC1(O)CCS(=O)(=O)C1 (stereo not drawn) [Example 122, 6-(3-cyanopyrrolo[1,2-b]pyridazin-7-yl)-N-((3-hydroxy-1,1-dioxidotetrahydrothiophen-3-yl)methyl)-4-(isopropylamino)nicotinamide] | 0.867 µM | – | 0.017 µM | –
CC(C)(O)[C@H](F)CNC(=O)c1cnc(-c2ccc3cc(C#N)cnn23)cc1NC1CCNCC1 [Example 23, (R)-6-(3-cyanopyrrolo[1,2-b]pyridazin-7-yl)-N-(2-fluoro-3-hydroxy-3-methylbutyl)-4-(piperidin-4-ylamino)nicotinamide] | 0.676 µM | – | 0.003 µM | –
CC(C)(O)[C@H](F)CNC(=O)c1cnc(-c2ccc3cc(C#N)cnn23)cc1NC1C2CCC1CNC2 (single isomer, unassigned) [Example 27] | 0.175 µM | – | 0.002 µM | –
CNC(=O)c1cnc(-c2ccc3cc(C#N)cnn23)cc1NC12CC(NC(=O)OC)(C1)C2 [Example 488, methyl (3-((2-(3-cyano-pyrrolo[1,2-b]pyridazin-7-yl)-5-(methylcarbamoyl)pyridin-4-yl)amino)bicyclo[1.1.1]pentan-1-yl)carbamate] | 0.071 µM | 0.001 µM | – | –
COC(=O)NC1CCC(NC(=O)c2cnc(-c3ccc4cc(C#N)cnn34)cc2N[C@H]2CC[C@H](NC(=O)OC)CC2)CC1 (stereo partly drawn) [Example 300, methyl ((1R,4r)-4-(6-(3-cyanopyrrolo[1,2-b]pyridazin-7-yl)-4-(((1r,4R)-4-((methoxycarbonyl)amino)cyclohexyl)amino)nicotinamido)cyclohexyl) carbamate] | 0.075 µM | – | 0.001 µM | –
CC(C)Nc1cc(-c2ccc3cc(C#N)cnn23)ncc1C(=O)NC1COC1 [Example 7, 6-(3-cyanopyrrolo[1,2-b]pyridazin-7-yl)-4-(isopropylamino)-N-(oxetan-3-yl)nicotinamide] | 0.442 µM | – | 0.005 µM | –
CC(C)(O)[C@H](F)CNC(=O)c1cnc(-c2ccc3cc(C#N)cnn23)cc1Nc1ccc2nccn2c1 [Example 974, (R)-6-(3-cyanopyrrolo[1,2-b]pyridazin-7-yl)-N-(2-fluoro-3-hydroxy-3-methylbutyl)-4-(imidazo[1,2-a]pyridin-6-ylamino)nicotinamide] | – | – | 0.001 µM | 0.112 µM
CC1(NC(=O)c2cnc(-c3ccc4cc(C#N)cnn34)cc2NC23CCC(O)(CC2)CC3)CC1 [Example 950, 6-(3-cyanopyrrolo[1,2-b]pyridazin-7-yl)-4-((4-hydroxybicyclo[2.2.2]octan-1-yl)amino)-N-(1-methylcyclopropyl) nicotinamide] | – | – | 0.001 µM | 0.07 µM
CC(=O)NCc1cccc(Nc2cc(-c3ccc4cc(C#N)cnn34)ncc2C(=O)NC[C@@H](F)C(C)(C)O)c1 [Example 220, (R)-4-((3-(acetamidomethyl)phenyl)amino)-6-(3-cyanopyrrolo[1,2-b]pyridazin-7-yl)-N-(2-fluoro-3-hydroxy-3-methylbutyl)nicotinamide] | 0.123 µM | – | 0.001 µM | –
CC(C)Nc1cc(-c2ccc3cc(C#N)cnn23)ncc1C(=O)NCC(F)(F)CN [Example 552, N-(3-amino-2,2-difluoro-propyl)-6-(3-cyano-pyrrolo[1,2-b]pyridazin-7-yl)-4-(isopropyl-amino)nicotinamide] | 1.16 µM | 0.007 µM | – | –
CC1(O)CN(C(=O)C23CCC(Nc4cc(-c5ccc6cc(C#N)cnn56)ncc4C(=O)NC[C@@H](F)C(C)(C)O)(CC2)CC3)C1 [Example 159, (R)-6-(3-cyanopyrrolo[1,2-b]pyridazin-7-yl)-N-(2-fluoro-3-hydroxy-3-methylbutyl)-4-((4-(3-hydroxy-3-methylazetidine-1-carbonyl)bicyclo[2.2.2]octan-1-yl)amino)nicotinamide] | 0.184 µM | – | 0.001 µM | –
CC(=O)NC1CCC(NC(=O)c2cnc(-c3ccc4cc(C#N)cnn34)cc2N[C@H]2CC[C@H](NC(C)=O)CC2)CC1 (stereo partly drawn) [Example 301, N-((1s,4S)-4-acetamidocyclohexyl)-4-(((1r,4R)-4-acetamidocyclohexyl)amino)-6-(3-cyanopyrrolo[1,2-b]pyridazin-7-yl)nicotinamide] | 1.41 µM | – | 0.002 µM | –
CC(C)(O)[C@H](F)CNC(=O)c1cnc(-c2ccc3cc(C#N)cnn23)cc1N[C@@H]1CN2CCC1CC2 [Example 263, 6-(3-cyanopyrrolo[1,2-b]pyridazin-7-yl)-N-((R)-2-fluoro-3-hydroxy-3-methylbutyl)-4-(((S)-quinuclidin-3-yl)amino)nicotinamide] | 0.193 µM | – | 0.003 µM | –
CC(C)Nc1cc(-c2ccc3cc(C#N)cnn23)ncc1C(=O)N[C@H]1CC[C@H](NC(=O)C2CC2)CC1 [Example 125, 6-(3-cyanopyrrolo[1,2-b]pyridazin-7-yl)-N-((1r,4r)-4-(cyclopropane-carboxamido)cyclohexyl)-4-(isopropyl-amino)nicotinamide] | 0.114 µM | – | 0.001 µM | –
CC(C)(O)[C@H](F)CNC(=O)c1cnc(-c2ccc3cc(C#N)cnn23)cc1Nc1ccc(C(C)(C)N2CCOC2=O)cc1 [Example 874, (R)-6-(3-cyanopyrrolo[1,2-b]pyridazin-7-yl)-N-(2-fluoro-3-hydroxy-3-methylbutyl)-4-((4-(2-(2-oxooxazolidin-3-yl)propan-2-yl)phenyl)amino)nicotinamide] | – | – | < 0.001 µM | 0.013 µM
CC(C)(O)[C@H](F)CNC(=O)c1cnc(-c2ccc3cc(C#N)cnn23)cc1N[C@H]1C[C@H](CNC2COC2)C1 [Example 702, 6-(3-cyanopyrrolo[1,2-b]pyridazin-7-yl)-N—((R)-2-fluoro-3-hydroxy-3-methylbutyl)-4-(((1r,3R)-3-((oxetan-3-ylamino)methyl)cyclobutyl)amino)nicotinamide] | 0.119 µM | < 0.001 µM | – | –
CN1CCOc2cc(Nc3cc(-c4ccc5cc(C#N)cnn45)ncc3C(=O)NC[C@@H](F)C(C)(C)O)ccc21 [Example 854, (R)-6-(3-cyanopyrrolo[1,2-b]pyridazin-7-yl)-N-(2-fluoro-3-hydroxy-3-methylbutyl)-4-((4-methyl-3,4-dihydro-2H-benzo[b] [1,4]oxazin-7-yl)amino)nicotinamide] | – | – | 0.001 µM | 0.01 µM
CC(C)(O)[C@H](F)CNC(=O)c1cnc(-c2ccc3cc(C#N)cnn23)cc1Nc1ccc2nc[nH]c2c1 [Example 580, (R)-4-((1H-benzo[d]imidazol-6-yl)amino)-6-(3-cyanopyrrolo[1,2-b]pyridazin-7-yl)-N-(2-fluoro-3-hydroxy-3-methyl-butyl)nicotinamide] | 0.069 µM | < 0.001 µM | – | –
CN1CCC[C@@H](Nc2cc(-c3ccc4cc(C#N)cnn34)ncc2C(=O)NC[C@@H](F)C(C)(C)O)C1 [Example 259, 6-(3-cyanopyrrolo[1,2-b]pyridazin-7-yl)-N-((R)-2-fluoro-3-hydroxy-3-methylbutyl)-4-(((R)-1-methylpiperidin-3-yl)amino)nicotinamide] | 0.152 µM | – | 0.006 µM | –
COC(=O)NCCC(C)(C)Nc1cc(-c2ccc3cc(C#N)cnn23)ncc1C(=O)NC[C@@H](F)C(C)(C)O [Example 721, (R)-methyl (3-((2-(3-cyano-pyrrolo[1,2-b]pyridazin-7-yl)-5-((2-fluoro-3-hydroxy-3-methylbutyl)carbamoyl)pyridin-4-yl)amino)-3-methylbutyl)carbamate] | 0.087 µM | 0.001 µM | – | –
CC(C)OC(=O)N[C@H]1CC[C@H](Nc2cc(-c3ccc4cc(C#N)cnn34)ncc2C(=O)NC[C@@H](F)C(C)(C)O)CC1 [Example 291, isopropyl ((1R,4r)-4-((2-(3-cyanopyrrolo[1,2-b]pyridazin-7-yl)-5-(((R)-2-fluoro-3-hydroxy-3-methylbutyl)carbamoyl)pyridin-4-yl)amino)cyclohexyl)carbamate] | 0.09 µM | – | 0.002 µM | –
CC(=O)N[C@H]1C[C@H](Nc2cc(-c3ccc4cc(C#N)cnn34)ncc2C(=O)NC[C@@H](F)C(C)(C)O)C1 [Example 456, 4-(((1r,3R)-3-acetamidocyclobutyl)amino)-6-(3-cyanopyrrolo[1,2-b]pyridazin-7-yl)-N-((R)-2-fluoro-3-hydroxy-3-methylbutyl)nicotinamide] | 0.394 µM | 0.001 µM | – | –
N#Cc1cnn2c(-c3cc(NC45CCC(O)(CC4)CC5)c(C(=O)NCCO)cn3)ccc2c1 [Example 745, 6-(3-cyanopyrrolo[1,2-b]pyridazin-7-yl)-4-((4-hydroxybicyclo[2.2.2]octan-1-yl)amino)-N-(2-hydroxyethyl)nicotinamide] | 0.087 µM | < 0.001 µM | – | –
CC(C)(O)[C@H](F)CNC(=O)c1cnc(-c2ccc3cc(C#N)cnn23)cc1NC12CCC(C(=O)N3CC(F)(F)C3)(CC1)CC2 [Example 409, (R)-6-(3-cyanopyrrolo[1,2-b]pyridazin-7-yl)-4-((4-(3,3-difluoroazetidine-1-carbonyl)bicyclo[2.2.2]octan-1-yl)amino)-N-(2-fluoro-3-hydroxy-3-methylbutyl)nicotinamide] | 0.017 µM | 0.001 µM | – | –
CC(C)(O)[C@H](F)CNC(=O)c1cnc(-c2ccc3cc(C#N)cnn23)cc1N[C@H]1C[C@H](Oc2ccccc2)C1 [Example 708, 6-(3-cyanopyrrolo[1,2-b]pyridazin-7-yl)-N-((R)-2-fluoro-3-hydroxy-3-methylbutyl)-4-(((1r,3R)-3-phenoxycyclobutyl)amino) nicotinamide] | 0.057 µM | 0.001 µM | – | –
CC(C)Nc1cc(-c2ccc3cc(C#N)cnn23)ncc1C(=O)NCC#N [Example 462, N-(cyanomethyl)-6-(3-cyanopyrrolo[1,2-b]pyridazin-7-yl)-4-(isopropylamino) nicotinamide] | 0.067 µM | < 0.001 µM | – | –
